One data set relates to CCRF-CEM. The data set can be described thus: Cytotoxicity against human CCRF-CEM cells assessed as growth inhibition at 10 uM after 48 hrs by sulforhodamine B assay. The class given is functional. As to conditions: read-out: GI.
The test system of the next data set is SR. The data set can be described thus: Cytotoxicity against human SR cells assessed as growth inhibition at 10 uM after 48 hrs by sulforhodamine B assay. As to conditions: read-out: GI. It counts as functional.
A further data set concerns A549. The data set can be described thus: Cytotoxicity against human A549 cells assessed as growth inhibition at 10 uM after 48 hrs by sulforhodamine B assay. It counts as functional. As to conditions: read-out: GI.
For a further data set, the system named is HOP-92. Kind of data set: Cytotoxicity against human HOP-92 cells assessed as growth inhibition at 10 uM after 48 hrs by sulforhodamine B assay. It counts as functional. As to conditions: read-out: GI.
For the next data set, the system named is SW-620. The data set can be described thus: Cytotoxicity against human SW-620 cells assessed as growth inhibition at 10 uM after 48 hrs by sulforhodamine B assay. The class given is functional. As to conditions: read-out: GI.
The next data set has as its system SF-268. Kind of data set: Cytotoxicity against human SF-268 cells assessed as growth inhibition at 10 uM after 48 hrs by sulforhodamine B assay. The class given is functional. As to conditions: read-out: GI.
The subject of a further data set is U-251. Kind of data set: Cytotoxicity against human U-251 cells assessed as growth inhibition at 10 uM after 48 hrs by sulforhodamine B assay. It counts as functional. As to conditions: read-out: GI.
A short description of data set [1]: Cytotoxicity against human Hs 578T cells assessed as growth inhibition at 10 uM after 48 hrs by sulforhodamine B assay. It counts as functional. As to conditions: read-out: GI.
The test system of another data set is T47D. Kind of data set: Cytotoxicity against human T47D cells assessed as growth inhibition at 10 uM after 48 hrs by sulforhodamine B assay. It counts as functional. As to conditions: read-out: GI.
A further data set has as its system MDA-MB-468. Kind of data set: Cytotoxicity against human MDA-MB-468 cells assessed as growth inhibition at 10 uM after 48 hrs by sulforhodamine B assay. It counts as functional. As to conditions: read-out: GI.
Another data set deals with MCF-10A. Kind of data set: Cytotoxicity against human MCF10A cells assessed as inhibition of cell growth incubated for 48 hrs by MTT assay. The class given is cell-based.
The nature of data set [2]: Selectivity index, ratio of IC50 for human MCF-10A cells to IC50 for human MCF7 cells. The class given is toxicity. As to conditions: MCF-10A cells versus MCF7 cells, read-out: Ratio IC50.
For data set [3], the target named is Phosphatidylinositol 4,5-bisphosphate 3-kinase catalytic subunit alpha isoform (Homo sapiens, UniProt P42336). Kind of data set: Inhibition of PI3Kalpha (unknown origin) using PIP2 as substrate preincubated for 10 mins followed by substrate addition and measured after 1 hr by ELISA.
Chain of Phosphatidylinositol 4,5-bisphosphate 3-kinase catalytic subunit alpha isoform (P42336 whole entry, canonical isoform): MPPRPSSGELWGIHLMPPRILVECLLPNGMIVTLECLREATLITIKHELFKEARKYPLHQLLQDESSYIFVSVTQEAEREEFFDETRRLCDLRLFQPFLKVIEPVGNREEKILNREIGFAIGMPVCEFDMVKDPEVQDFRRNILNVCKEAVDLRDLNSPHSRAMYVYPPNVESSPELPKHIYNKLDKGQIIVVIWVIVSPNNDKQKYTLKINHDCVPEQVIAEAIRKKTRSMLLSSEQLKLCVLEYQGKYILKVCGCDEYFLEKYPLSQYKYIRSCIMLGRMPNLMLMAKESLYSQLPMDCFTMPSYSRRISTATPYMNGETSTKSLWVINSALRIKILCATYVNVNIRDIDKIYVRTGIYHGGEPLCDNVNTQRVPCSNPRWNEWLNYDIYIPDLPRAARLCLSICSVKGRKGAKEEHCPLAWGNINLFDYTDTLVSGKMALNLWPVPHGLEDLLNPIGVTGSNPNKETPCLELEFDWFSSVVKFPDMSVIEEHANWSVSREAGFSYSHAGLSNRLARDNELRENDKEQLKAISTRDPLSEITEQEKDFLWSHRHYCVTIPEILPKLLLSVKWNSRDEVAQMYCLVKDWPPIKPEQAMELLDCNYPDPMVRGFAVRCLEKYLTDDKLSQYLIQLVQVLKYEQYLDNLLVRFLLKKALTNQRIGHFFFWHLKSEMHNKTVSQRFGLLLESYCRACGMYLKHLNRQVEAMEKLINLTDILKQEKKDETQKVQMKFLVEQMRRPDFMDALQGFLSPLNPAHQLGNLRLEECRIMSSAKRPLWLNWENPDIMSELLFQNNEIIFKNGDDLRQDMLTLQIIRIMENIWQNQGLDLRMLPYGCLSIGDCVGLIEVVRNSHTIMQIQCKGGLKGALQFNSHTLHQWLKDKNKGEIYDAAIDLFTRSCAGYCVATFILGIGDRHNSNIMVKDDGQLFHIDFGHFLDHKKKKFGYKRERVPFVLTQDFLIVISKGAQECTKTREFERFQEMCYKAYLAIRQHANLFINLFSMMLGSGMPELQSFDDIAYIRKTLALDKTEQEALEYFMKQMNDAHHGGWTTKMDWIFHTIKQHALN
A further data set relates to MCF7. The data set can be described thus: Induction of apoptosis in human MCF7 cells assessed as necrotic cells at 13.30 uM after 48 hrs by annexin V-FITC/propidium iodide staining based flow cytometric analysis (reference value: 1.26%). It counts as functional. As to conditions: dose 13.3 µM.
In data set [4] the target is T1, Phosphatidylinositol 4,5-bisphosphate 3-kinase catalytic subunit delta isoform (Homo sapiens, UniProt O00329).
T1 sequence (O00329 whole entry): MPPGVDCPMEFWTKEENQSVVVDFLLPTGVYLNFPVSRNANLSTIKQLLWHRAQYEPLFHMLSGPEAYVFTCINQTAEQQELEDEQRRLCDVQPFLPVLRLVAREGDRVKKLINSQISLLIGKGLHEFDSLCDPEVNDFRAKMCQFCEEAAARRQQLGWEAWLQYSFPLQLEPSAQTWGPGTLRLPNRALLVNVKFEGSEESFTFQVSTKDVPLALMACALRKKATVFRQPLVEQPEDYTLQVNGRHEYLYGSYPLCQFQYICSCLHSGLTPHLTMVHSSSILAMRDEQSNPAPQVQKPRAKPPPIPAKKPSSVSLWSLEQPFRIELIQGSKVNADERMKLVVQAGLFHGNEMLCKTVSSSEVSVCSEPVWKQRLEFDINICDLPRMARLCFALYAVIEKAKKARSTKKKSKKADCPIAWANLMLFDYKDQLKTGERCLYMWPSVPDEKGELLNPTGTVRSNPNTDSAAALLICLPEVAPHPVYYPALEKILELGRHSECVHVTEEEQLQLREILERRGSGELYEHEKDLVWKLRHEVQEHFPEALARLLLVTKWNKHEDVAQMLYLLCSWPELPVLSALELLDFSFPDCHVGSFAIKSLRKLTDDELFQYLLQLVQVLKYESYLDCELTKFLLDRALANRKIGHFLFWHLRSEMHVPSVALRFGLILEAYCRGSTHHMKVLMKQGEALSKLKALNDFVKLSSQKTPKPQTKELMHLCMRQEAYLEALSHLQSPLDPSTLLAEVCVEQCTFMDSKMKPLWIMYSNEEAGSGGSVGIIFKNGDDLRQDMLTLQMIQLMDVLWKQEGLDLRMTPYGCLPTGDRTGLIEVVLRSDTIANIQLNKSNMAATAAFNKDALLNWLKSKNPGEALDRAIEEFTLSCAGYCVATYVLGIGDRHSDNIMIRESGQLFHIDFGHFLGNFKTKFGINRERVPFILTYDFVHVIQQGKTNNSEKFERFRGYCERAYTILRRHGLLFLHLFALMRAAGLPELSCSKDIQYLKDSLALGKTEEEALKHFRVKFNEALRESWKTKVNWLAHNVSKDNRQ
The data set can be described thus: Inhibition of PI3Kdelta (unknown origin) using PIP2 as substrate preincubated for 10 mins followed by substrate addition and measured after 1 hr by ELISA.

`COC(=O)/C=C1\S/C(=N\N=C\c2ccc(OCC(F)(F)F)cc2)N(c2ccccc2)C1=O`: the inhibition of growth at 10 µM in the data set with CCRF-CEM worked out at 13.5%; in the data set on SR it was 24.7%; with A549, 15.3%; in the data set on HOP-92 it was 20.1%; in the data set with SW-620, 12.4%; with SF-268, 11.8%. Further, the inhibition of growth at 10 µM with U-251 stood at 23.1%; in [1], 43%; in the data set with T47D, 14.5%; in the data set with MDA-MB-468, 47.6%. In addition, the IC50 in the data set on MCF-10A came to 24.2 µM; in data set [3], 77.5 µM; in data set [4], 121 µM. The selectivity ratio in data set [2] was determined as 1.81. The Activity in the data set on MCF7 is on record as 7.39%.

These data come from ChEMBL document CHEMBL5055672, “Design, Synthesis, Biological Evaluation, and Computational Studies of Novel Fluorinated Candidates as PI3K Inhibitors: Targeting Fluorophilic Binding Sites” (J Med Chem, 2021).
